Data: patent publication US20250325684A1, “POTENT ANTI-CANCER CYCLOTIDES” (University of Southern California, priority 2022, published 2025)
“Also recorded” adds a separate entry of the source. Numbered stars: 1 amine (or outer) side, 2 acyl side, 3 side chain; on linkers, the order of the positions; unused ones are H or OH. Bridge positions count the residues as written; N and C are the ends. Square brackets hold non-standard residues; d marks the D form. I, II: the chains in the order shown. X1 = O=C(CCc1cn(CCOCCOCCOCCC(=O)[*:2])nn1)[*:1]; isoGln = NC(=O)[C@H](CCC(=O)[*:2])N[*:1]

How the values were obtained:
[1] = tested on: p53, FOXO3a, RUNX3, ATF3, DYRK2 and HIPK2 in HCT116 cell lines; experiment: Stabilization of Hdm2/HdmX E3 ligase substrates in HCT116 cell lines; assay type: cell-based, human; conditions: HCT116 cell lines with p53-wt and -null phenotype; listed as MCo-52-2-cTAT
Protocol: (§1) Stabilization of p53 could be observed just 8 h after treating the cells with the bioactive cyclotide (FIG. 5B), likely indicating the cyclotide crosses the cellular membrane into the cytosol through an endocytic mechanism as previously described for this type of microproteins (30, 31). […] These transcription factors (ATF3, FOXO3a and RUNX3) and kinases (DYRK2 and HIPK2) have been described to be regulated by the E3 ligase activity of Hdm2/HdmX (6). […] In both cases the peptide was able to inhibit tumor growth by 60% (HCT116-nude mice) and 80% (CT26-Balb/c mice) (FIG. 7).

[2] = tested on: p53 pathway in LNCaP cells; experiment: Activation of the p53 pathway in LNCaP cells; assay type: cell-based, human
Protocol: Activation of the p53 pathway requires 6 to 8 h after exposing the cells to cyclotide MCo-52-2 for 1 h (FIG. 5B).
as §1

[3] = Toxicity observation in tumor-bearing mice; assay type: in vivo, mouse; conditions: dosed up to 40 mg/kg three times per week
Protocol: Tumor samples were also subjected to SDS-PAGE and analyzed by western blotting for p53, Hdm2, and p21. GAPDH was used as loading control in western blots.
Mice xenografts studies. HCT116 p53^−/− and CT26 xenografts were established by injecting 100 uL suspension of basal RPMI containing 0.5×10^6 cells into the rear right flanks of female nude mice (nu/nu) mice (HCT116) or Balb/C (CT26). […] Compounds were prepared in a D5W at a final volume of 50 μL (peptide) or 100 μL (Nutlin-3). Health checks were performed daily to observe parameters such as body conditioning score, overall appearance and cleanliness, strength of grip, skin color and tone, mobility, gait and activity level as indicators of potential drug related toxicities. Individual weights were recorded thrice weekly, comparing the control and treatment groups as an additional indicator of tolerance of drug treatment as well as providing the average weight for calculation of drug dosing. Tumor size was measured with calipers. Tumor volume was calculated by measuring tumor size in two dimensions and applying those measurements to the calculation V=d^2×D/2, where d and D equal to the smaller and larger of the two measurements, respectively. Mice bearing tumors larger than 2.4 cm^3 were removed from the study, sacrificed and necropsies performed to gather tumor and organ samples for histological analysis. […]

[4] = Immunogenicity, IgG titer ELISA in Balb/c mice; assay type: in vivo, mouse; conditions: intraperitoneal 25 mg/kg, 3 times per week for 28 days, listed as MCo-52-2-cTAT
Protocol: The ELISA assay was performed as follows. Micro microplate wells were coated with pmol of streptavidin and then blocked with a 5 solution of nonfat dry milk in PBS. Around of 150 pmol of the corresponding biotinylated antigen (MCo-52-2 or cTAT) were incubated with the streptavidin-coated wells. Murine IgG (m-IgG, 150 pmol) and PBS (no antigen) were used as positive and negative controls in the assay, respectively. Wells coated with antigens MCo-52-2 and cTAT were incubated with serial dilutions of sera from mice untreated and treated with cyclotide MCo-52-2-cTAT. The amount of murine IgG was detected using a goat HRP-conjugated anti-mouse IgG.

I: cyclo(ACICRHDSYCGSGSDGGVCPNLYLLCRRDKDCPG) / II: KK[dR]R[dR]G[dR]K[dK]R[dR][isoGln] (disulfide I:2-I:19, I:4-I:26, I:10-I:32; linker I:30-II:N via X1; lactam II:1-II:C) [Cyclotide 52-2-cTAT]
Stabilization of transcription factors and kinases [1]: stabilize ATF3, FOXO3a, RUNX3, DYRK2 and HIPK2; also recorded: stabilizes transcription factors p53, FOXO3a, RUNX3, ATF3, and kinases DYRK2 and HIPK2 | Time until activation of the p53 pathway / stabilization of p53 ([2]; after exposing the cells to cyclotide for 1 h, listed as MCo-52-2-cTAT): 8 h | Activation of the p53 pathway ([2]; wild type-p53, listed as MCo-52-2-cTAT): activate the p53 pathway in wild type-p53 cancer cells (LNCaP) in a dose-dependent fashion; also recorded: activates the p53 pathway in LNCaP cells in a dose-dependent fashion | Toxic effects [3]: No toxic effects were detected | Immunogenicity, IgG titer against the cyclotide [4]: did not show any significant IgG titer; also recorded: little immunogenicity
